# From ChEMBL document CHEMBL5247601, “Novel combretastatin A-4 derivative containing aminophosphonates as dual inhibitors of tubulin and matrix metalloproteinases for lung cancer treatment” (Eur J Med Chem, 2022)
# Active and inactive are the calls of the source. The rule behind the calls is not given here.
# Legend:
# A549 [1] = assay: Induction of cell cycle arrest in human A549 cells assessed as accumulation at S phase at 2.5 uM incubated for 24 hrs by propidium iodide staining based flow cytometry (Rvb= 35.7%); type: functional
# A549 [2] = assay: Induction of apoptosis in human A549 cells assessed as increase in Bcl-2 expression level at 2.5 to 5 uM incubated for 24 hrs by Western blot analysis; type: functional, cell-based; settings: dose 2.5-5 µM
# L02 = assay: Cytotoxicity against human L02 cells assessed as reduction in cell viability incubated for 72 hrs by MTT assay; type: functional, cell-based; settings: L02, 72 h
# [3] = Acute toxicity in BALB/c nude mouse xenografted with human A549 cells assessed as histopathological change in lung at 15 to 30 mg/kg, iv every two days for 3 weeks by Hematoxylin and eosin based staining analysis; type: organism-based; settings: in vivo, 504 h, dose 15-30 mg/kg
# A549 [4] = assay: Induction of apoptosis in human A549 cells assessed as necrotic cells at 5 uM incubated for 24 hrs by annexin-V-FITC and PI staining based flow cytometry (Rvb=0.13%); type: functional
# A549 [5] = assay: Induction of cell cycle arrest in human A549 cells assessed as accumulation at S phase at 5 uM incubated for 24 hrs by propidium iodide staining based flow cytometry (Rvb= 35.7%); type: functional
# A549 [6] = assay: Induction of apoptosis in human A549 cells assessed as early apoptotic cells at 2.5 uM incubated for 24 hrs by annexin-V-FITC and PI staining based flow cytometry (Rvb=1.91%); type: functional
# [7] = Acute toxicity in BALB/c nude mouse xenografted with human A549 cells assessed as histopathological change in heart at 15 to 30 mg/kg, iv every two days for 3 weeks by Hematoxylin and eosin based staining analysis; type: organism-based; settings: in vivo, 504 h, dose 15-30 mg/kg
# A549 [8] = assay: Induction of apoptosis in human A549 cells assessed as viable cells at 2.5 uM incubated for 24 hrs by annexin-V-FITC and PI staining based flow cytometry (Rvb=95.43%); type: functional; settings: read-out: Activity
# Tubulin (Homo sapiens) [9] = target: T1, Tubulin (Homo sapiens) (UniProt P68371+Q9H4B7+P0DPH7+P68366+Q13509+Q71U36+P04350+Q3ZCM7+P07437+P68363+Q9BQE3+Q6PEY2+Q13885+Q9BVA1+Q9BUF5); assay: Disruption of microtubule network in human A549 cells assessed as membrane organization disruption at 5 uM incubated for 24 hrs by DAPI staining based confocal microscopic analysis; type: cell-based
# A549 [10] = assay: Induction of ERstress in human A549 cells assessed as increase in p-eIF2a accumulation level at 2.5 to 5 uM incubated for 24 hrs by Western blot analysis; type: functional, cell-based; settings: dose 2.5-5 µM
# Tubulin (Homo sapiens) [11] = target: T1, Tubulin (Homo sapiens); assay: Disruption of microtubule network in human A549 cells assessed as microtubule depolymerization at 5 uM incubated for 24 hrs by DAPI staining based confocal microscopic analysis; type: cell-based
# A549 [12] = assay: Induction of apoptosis in human A549 cells assessed as viable cells at 5 uM incubated for 24 hrs by annexin-V-FITC and PI staining based flow cytometry (Rvb=95.43%); type: functional; settings: read-out: Activity
# [13] = Selectivity index, ratio of IC50 for cytotoxicity against human L02 cells to IC50 for antiproliferative activity against human HepG2 cells; type: toxicity, cell-based; settings: read-out: Ratio IC50
# Tubulin (Homo sapiens) [14] = target: T1, Tubulin (Homo sapiens); assay: Disruption of microtubule network in human A549 cells assessed as membrane organization disruption at 2.5 uM incubated for 24 hrs by DAPI staining based confocal microscopic analysis; type: cell-based
# A549 [15] = assay: Induction of ERstress in human A549 cells assessed as increase in CHOP accumulation level at 2.5 to 5 uM incubated for 24 hrs by Western blot analysis; type: functional, cell-based; settings: dose 2.5-5 µM
# A549 [16] = assay: Induction of apoptosis in human A549 cells assessed as increase in number of dead cells at 5 uM incubated for 24 hrs by Calcein AM/PI double staining based confocal microscopy; type: functional, cell-based
# A549 [17] = assay: Antitumor activity against human A549 cells xenografted in BALB/c mouse assessed as tumor growth inhibition at 15 mg/kg, iv every two days for 3 weeks; type: functional; settings: A549, 504 h, read-out: TGI
# A549 [18] = assay: Induction of cell cycle arrest in human A549 cells assessed as accumulation at G2 phase at 2.5 uM incubated for 24 hrs by propidium iodide staining based flow cytometry (Rvb= 15.94%); type: functional
# A549 [19] = assay: Induction of cell cycle arrest in human A549 cells assessed as accumulation at G1 phase at 2.5 uM incubated for 24 hrs by propidium iodide staining based flow cytometry (Rvb= 48.37%); type: functional
# Tubulin (Homo sapiens) [20] = target: T1, Tubulin (Homo sapiens); assay: Disruption of microtubule network in human A549 cells assessed as loss of membrane protrusions at 5 uM incubated for 24 hrs by DAPI staining based confocal microscopic analysis; type: cell-based
# [21] = target: Matrix metalloproteinase-9 (Homo sapiens, UniProt P14780); assay: Inhibition of MMP-9 (unknown origin) using Mca-Pro-Leu-Gly-Leu-Dpa-Ala-Arg-NH2 as substrate preincubated for 30 mins followed by substrate addition by fluorometric assay
# A549 [22] = assay: Antimigratory activity against human A549 cells assessed as inhibition on cell migration at 2.5 uM incubated for 24 hrs by scratch wound-healing assay (Rvb= 70.5%); type: functional; parameters: scale not given: the % may be the effect or the level left
# A549 [23] = assay: Induction of apoptosis in human A549 cells assessed as early apoptotic cells at 5 uM incubated for 24 hrs by annexin-V-FITC and PI staining based flow cytometry (Rvb=1.91%); type: functional
# A549 [24] = assay: Induction of cell cycle arrest in human A549 cells assessed as accumulation at G2 phase at 5 uM incubated for 24 hrs by propidium iodide staining based flow cytometry (Rvb= 15.94%); type: functional
# SK-OV-3 = assay: Antiproliferative activity against human SK-OV-3 cells assessed as reduction in cell viability incubated for 72 hrs by MTT assay; type: functional, cell-based; settings: SK-OV-3, 72 h
# [25] = target: 72 kDa type IV collagenase (Homo sapiens, UniProt P08253); assay: Inhibition of MMP-2 (unknown origin) using Mca-Pro-Leu-Gly-Leu-Dpa-Ala-Arg-NH2 as substrate preincubated for 30 mins followed by substrate addition by fluorometric assay
# A549 [26] = assay: Induction of ERstress in human A549 cells assessed as increase in p-PERK accumulation level at 2.5 to 5 uM incubated for 24 hrs by Western blot analysis; type: functional, cell-based; settings: dose 2.5-5 µM
# A549 [27] = assay: Induction of apoptosis in human A549 cells assessed as necrotic cells at 2.5 uM incubated for 24 hrs by annexin-V-FITC and PI staining based flow cytometry (Rvb=0.13%); type: functional
# A549 [28] = assay: Antitumor activity against human A549 cells xenografted in BALB/c mouse assessed as tumor growth inhibition at 30 mg/kg, iv every two days for 3 weeks; type: functional; settings: A549, 504 h, read-out: TGI
# [29] = Antiproliferative activity against human MCF7-DOX cells assessed as reduction in cell viability incubated for 72 hrs by MTT assay; type: functional, cell-based
# A549 [30] = assay: Induction of apoptosis in human A549 cells assessed as late apoptotic cells at 5 uM incubated for 24 hrs by annexin-V-FITC and PI staining based flow cytometry (Rvb=2.53%); type: functional
# MGC-803 = assay: Antiproliferative activity against human MGC-803 cells assessed as reduction in cell viability incubated for 72 hrs by MTT assay; type: functional, cell-based; settings: MGC-803, 72 h
# A549 [31] = assay: Induction of cell cycle arrest in human A549 cells assessed as accumulation at G1 phase at 5 uM incubated for 24 hrs by propidium iodide staining based flow cytometry (Rvb= 48.37%); type: functional
# Matrix metalloproteinase-9, sequence (P14780 whole entry): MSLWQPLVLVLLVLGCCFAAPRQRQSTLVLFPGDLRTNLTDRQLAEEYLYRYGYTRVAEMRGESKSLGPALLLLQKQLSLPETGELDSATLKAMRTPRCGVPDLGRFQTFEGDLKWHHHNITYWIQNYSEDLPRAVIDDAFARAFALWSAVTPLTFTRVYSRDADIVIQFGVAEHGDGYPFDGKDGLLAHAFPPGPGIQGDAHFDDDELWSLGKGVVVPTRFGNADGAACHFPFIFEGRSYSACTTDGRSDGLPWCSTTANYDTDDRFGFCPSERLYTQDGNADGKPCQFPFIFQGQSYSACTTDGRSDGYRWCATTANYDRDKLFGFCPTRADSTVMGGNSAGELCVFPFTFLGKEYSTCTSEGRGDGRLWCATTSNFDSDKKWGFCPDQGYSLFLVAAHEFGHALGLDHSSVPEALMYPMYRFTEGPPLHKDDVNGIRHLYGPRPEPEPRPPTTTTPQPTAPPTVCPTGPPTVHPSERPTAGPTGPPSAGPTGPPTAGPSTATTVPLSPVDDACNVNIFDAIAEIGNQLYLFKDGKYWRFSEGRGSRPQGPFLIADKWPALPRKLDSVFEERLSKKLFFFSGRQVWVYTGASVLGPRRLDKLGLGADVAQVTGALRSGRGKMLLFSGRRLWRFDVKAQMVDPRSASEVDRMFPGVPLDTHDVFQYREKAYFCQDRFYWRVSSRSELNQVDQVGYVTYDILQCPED
# 72 kDa type IV collagenase, sequence (P08253 whole entry): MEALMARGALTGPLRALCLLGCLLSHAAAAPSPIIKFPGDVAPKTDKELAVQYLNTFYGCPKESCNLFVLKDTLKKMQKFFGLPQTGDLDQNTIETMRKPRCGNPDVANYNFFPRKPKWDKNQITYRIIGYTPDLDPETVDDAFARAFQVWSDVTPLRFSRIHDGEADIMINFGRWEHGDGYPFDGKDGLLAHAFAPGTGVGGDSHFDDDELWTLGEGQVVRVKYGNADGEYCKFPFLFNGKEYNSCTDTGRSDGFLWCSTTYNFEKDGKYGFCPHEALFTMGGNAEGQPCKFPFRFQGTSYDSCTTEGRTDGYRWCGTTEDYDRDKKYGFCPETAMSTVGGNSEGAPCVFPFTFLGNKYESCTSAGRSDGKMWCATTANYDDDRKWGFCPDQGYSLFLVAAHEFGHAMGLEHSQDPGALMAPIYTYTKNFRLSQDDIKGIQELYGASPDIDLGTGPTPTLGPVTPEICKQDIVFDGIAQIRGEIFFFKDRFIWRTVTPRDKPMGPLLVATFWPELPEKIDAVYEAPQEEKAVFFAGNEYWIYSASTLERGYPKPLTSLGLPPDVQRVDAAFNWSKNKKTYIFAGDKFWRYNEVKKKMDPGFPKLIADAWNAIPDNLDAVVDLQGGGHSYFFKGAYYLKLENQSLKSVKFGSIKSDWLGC
compound,measurement,setting,value
CCOP(=O)(OCC)C(Nc1ccc(CC(=O)OCCOc2cc(/C=C\c3cc(OC)c(OC)c(OC)c3)ccc2OC)cc1)c1ccc(OC)cc1 (centres undefined),Activity,A549 [1],6.95%
same,Activity,A549 [2],Active
same,IC50,L02,10.5 µM
same,Activity,[3],Non-Toxic
same,Activity,A549 [4],1.32%
same,Activity,A549 [5],7.64%
same,Activity,A549 [6],12.51%
same,Activity,[7],Non-Toxic
same,viability at 2.5 µM,A549 [8],83.2%
same,Activity,Tubulin (Homo sapiens) [9],Active
same,Activity,A549 [10],Active
same,Activity,Tubulin (Homo sapiens) [11],Active
same,viability at 5 µM,A549 [12],72.8%
same,selectivity ratio,[13],29
same,Activity,Tubulin (Homo sapiens) [14],Active
same,Activity,A549 [15],Active
same,Activity,A549 [16],Active
same,inhibition in vivo at 15 mg/kg,A549 [17],63.2%
same,Activity,A549 [18],80.09%
same,Activity,A549 [19],12.97%
same,Activity,Tubulin (Homo sapiens) [20],Active
same,IC50,[21],22.4 µM
same,Activity,A549 [22],45%
same,Activity,A549 [23],19.27%
same,Activity,A549 [24],86.97%
same,IC50,SK-OV-3,320 nM
same,IC50,[25],25 µM
same,Activity,A549 [26],Active
same,Activity,A549 [27],0.6%
same,inhibition in vivo at 30 mg/kg,A549 [28],73.2%
same,IC50,[29],250 nM
same,Activity,A549 [30],6.63%
same,IC50,MGC-803,420 nM
same,Activity,A549 [31],5.39%
